Columns and labels:
in vitro = settings: mouse, cerebellar granule neurons
[1] = target: Hamster recombinant full length PrP (Mesocricetus auratus, UniProt P04273); type: biochemical
PrP^res = system: PrP^res; set-up: species or system C57BL/6 mice; settings: mouse, in vivo
[2] = system: endothelial cells of the BBB; settings: cited from earlier work

Hamster recombinant full length PrP, sequence (P04273 23-254 limits assumed): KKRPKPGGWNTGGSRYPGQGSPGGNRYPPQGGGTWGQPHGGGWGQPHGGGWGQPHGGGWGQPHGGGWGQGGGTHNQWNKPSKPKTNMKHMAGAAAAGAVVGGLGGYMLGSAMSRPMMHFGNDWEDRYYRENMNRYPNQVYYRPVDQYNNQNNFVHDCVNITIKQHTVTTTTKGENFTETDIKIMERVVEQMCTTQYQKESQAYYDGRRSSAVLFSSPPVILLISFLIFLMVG

## COC[C@H]1O[C@@H]2O[C@H]3[C@H](O)[C@@H](OC)[C@@H](O[C@H]4[C@H](O)[C@@H](OC)[C@@H](O[C@H]5[C@H](O)[C@@H](OC)[C@@H](O[C@H]6[C@H](O)[C@@H](OC)[C@@H](O[C@H]7[C@H](O)[C@@H](OC)[C@@H](O[C@H]8[C@H](O)[C@@H](OC)[C@@H](O[C@H]1[C@H](O)[C@H]2OC)O[C@@H]8COC)O[C@@H]7COC)O[C@@H]6COC)O[C@@H]5COC)O[C@@H]4COC)O[C@@H]3COC [DIMEB, heptakis(2,6-O-dimethyl)beta-cyclodextrin]
In vitro
  MCC at 72 h: > 500 µM
[1]
  concentration of maximum effect on lag phase: 100 µM
  lag phase (time for the reaction to start): significantly increased
PrP^res
  PrP^res accumulation in brain (difference between the groups): did not show any difference

## trimethyl-β-cyclodextrin [TRIMEB]
[2]
  toxicity on endothelial cells of the BBB: more toxic than α-cyclodextrin
